In patent US20230150981A1, “N-HETEROARYLALKYL-2-(HETEROCYCLYL AND HETEROCYCLYLMETHYL) ACETAMIDE DERIVATIVES AS SSTR4 AGONISTS” (Takeda Pharmaceutical Compnay Limited, priority 2020, published 2023):

Assays:
[1] = biological target: T1, SSTR4 (Homo sapiens, UniProt P31391); assay: Inhibition of forskolin stimulated cAMP in CHO-K1 cells overexpressing SSTR4; assay type: cell-based; details: read-out: SSTR4 Activity pEC50 (converted)
T1 construct: host or cells: CHO-K1
Description: Inhibition of Forskolin Stimulated cAMP in Cells Overexpressing SSTR4
This cell-based assay measures the ability of compounds to inhibit forskolin stimulated cAMP in CHO-K1 cells overexpressing SSTR4. CHO-K1 cells overexpressing SSTR4 (CHO-SSTR4) are purchased from DiscoveRx (product code 95-0059C2). The CHO-SSTR4 cells are maintained in F12K media with 10% Fetal Bovine Serum (Hyclone), 1% Pen/Strep (Life Technologies), and 800 μg/mL G418 (Life Technologies). To perform the assay, 3000 cells are plated per well in white 384-well plate (Corning 3570) in 50 μL complete media and the cells are allowed to attach for 16 hours in a 37° C., 5% CO2 incubator. The next day, the culture media is removed from the cells and the cells are washed (added then removed) with Krebs Ringer Buffer (ZenBio, KRB-1000 mL). Test compounds are suspended in DMSO and diluted in stimulation buffer: Krebs Ringer Buffer plus 0.5% BSA (Roche), 300 μM IBMX (Sigma), and 350 nM forskolin (Sigma). The cells are incubated in 10 μL compound/stimulation buffer for 30 minutes at room temperature. Cellular cAMP levels are detected with a HTRF LANCE Ultra cAMP kit (Perkin Elmer, catalog number TRF0264).
The assay is performed in accordance with the manufacturer's instructions. Five μL of diluted Eu-W8044 labeled streptavidin (dilution: 1:50 in cAMP Detection Buffer) is added to each well. Then 5 μL of diluted biotin cAMP (dilution: 1:150 in cAMP Detection Buffer) is added to each well. The plates are covered and allowed to incubate for 60 minutes at room temperature on a shaker. HTRF (665 nm/615 nm) is read on a Perkin Elmer ENVISION plate reader. The pEC50 values are generated using Activity Base for Screening Data Management.

[2] = biological target: T1, SSTR4; assay: SSTR4 I-125 somatostatin competition binding assay (CHO-K1 membranes); details: competition with I-125 somatostatin, membranes from CHO-K1 overexpressing SSTR4; read-out: SSTR4 Binding pIC50 (converted)
Description: SSTR4 I-125 Somatostatin Competition Binding Assay
Membranes from CHO-K1 cells overexpressing SSTR4 are purchased from Perkin Elmer (catalog number ES-524-M400UA). Test compounds are suspended in DMSO and then diluted in assay buffer (25 mM HEPES pH 7.4, 10 mM MgCl2, 1 mM CaCl2), 0.5% BSA) plus 0.2 nM I-125 labeled somatostatin (Perkin Elmer catalog number NEX389). Fifty μL of compound/I-125 somatostatin in assay buffer are added per well to 96-well poly-propylene plate. Then 1 μg of SSTR4 membranes in 50 μL assay buffer are added per well. The Plate is incubated for 60 minutes at room temperature. FilterMat A filters (Perkin Elmer catalog number 1450-421) are pre-soaked in 0.5% PEI (Sigma catalog number P3143). The contents of the assay plate are transferred to filters with a TomTech harvester and washed 5 times with 20 mM HEPES, 100 mM NaCl. The filters are dried in a microwave oven then transferred to sample bag containing a scintillator sheet (Perkin Elmer catalog number 1450-441). The scintillator sheets are melted to filters using a heat block. The filters are then read in a MicroBeta scintillation counter. Binding Ki curves are generated using Activity Base for Screening Data Management and the results are reported as pIC50.

[3] = biological target: T2, SSTR1 (Homo sapiens, UniProt P30872); assay: SSTR1 I-125 somatostatin competition binding assay for selectivity versus SSTR1 (CHO-K1 membranes); details: competition with I-125 somatostatin, membranes from CHO-K1 overexpressing SSTR1; read-out: SSTR1 Binding pIC50 (converted)
T2 construct: purchased Perkin Elmer ES-520-M400UA; host or cells: CHO-K1 membranes
T2 sequence (P30872 whole entry): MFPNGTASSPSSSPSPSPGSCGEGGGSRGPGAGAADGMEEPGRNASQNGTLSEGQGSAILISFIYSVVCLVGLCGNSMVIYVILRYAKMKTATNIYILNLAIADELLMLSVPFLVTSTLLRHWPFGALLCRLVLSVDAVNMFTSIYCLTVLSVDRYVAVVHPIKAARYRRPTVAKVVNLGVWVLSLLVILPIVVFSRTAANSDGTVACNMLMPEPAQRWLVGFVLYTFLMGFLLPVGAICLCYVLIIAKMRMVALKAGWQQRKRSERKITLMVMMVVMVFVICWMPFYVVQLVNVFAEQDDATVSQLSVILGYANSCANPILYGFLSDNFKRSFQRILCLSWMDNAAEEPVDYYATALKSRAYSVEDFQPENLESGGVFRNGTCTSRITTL
Description: SSTR1 I-125 Somatostatin Competition Binding Assay for Selectivity Versus SSTR1
Membranes from CHO-K1 cells overexpressing SSTR1 are purchased from Perkin Elmer (catalog number ES-520-M400UA). Test compounds are suspended in DMSO and then diluted in assay buffer (25 mM HEPES pH 7.4, 10 mM MgCl2, 1 mM CaCl2), 0.5% BSA) plus 0.4 nM I-125 labeled somatostatin (Perkin Elmer catalog number NEX389). Fifty μL of compound/I-125 somatostatin in assay buffer are added per well to 96-well poly-propylene plate. Then 10 μg of SSTR1 membranes in 50 μL assay buffer are added per well. The plate is incubated for 60 minutes at room temperature. FilterMat A filters (Perkin Elmer catalog number 1450-421) are pre-soaked in 0.5% PEI (Sigma catalog number P3143). The contents of the assay plate are transferred to filters with a TomTech harvester and washed 5 times with 20 mM HEPES, 100 mM NaCl. The filters are dried in a microwave oven then transferred to sample bag containing a scintillator sheet (Perkin Elmer catalog number 1450-441). The scintillator sheets are melted to the filters using a heat block. The filters are then read in a MicroBeta scintillation counter. Binding Ki curves are generated using Activity Base for Screening Data Management and the results are reported as pIC50.

T1 sequence (P31391 whole entry): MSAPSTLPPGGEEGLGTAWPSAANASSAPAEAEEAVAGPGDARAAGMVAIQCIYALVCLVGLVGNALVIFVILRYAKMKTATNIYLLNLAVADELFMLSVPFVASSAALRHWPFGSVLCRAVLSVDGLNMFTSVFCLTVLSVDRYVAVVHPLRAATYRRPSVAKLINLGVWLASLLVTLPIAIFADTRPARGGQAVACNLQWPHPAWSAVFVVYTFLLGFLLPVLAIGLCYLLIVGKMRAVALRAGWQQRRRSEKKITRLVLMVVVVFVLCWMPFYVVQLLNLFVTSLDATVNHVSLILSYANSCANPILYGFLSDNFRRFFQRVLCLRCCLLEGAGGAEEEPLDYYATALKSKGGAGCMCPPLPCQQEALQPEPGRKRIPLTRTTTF

SMILES | EC50 [1] | IC50 [2] | IC50 [3]
CN1CCCC[C@@H]1CC(=O)NC(C)(C)c1nccc2occc12 (single isomer, unassigned) [Example 14] | 0.00631 µM | 0.0794 µM | 25.1 µM
CN1CCC[C@H]1CC(=O)NC(C)(C)c1nccc2ccccc12 [Example 24, (S)-N-(2-(isoquinolin-1-yl)propan-2-yl)-2-(1-methylpyrrolidin-2-yl)acetamide] | 0.0126 µM | 0.2 µM | 6.31 µM
CN1CCC[C@H]1CC(=O)NC(C)(C)c1ccc(Cl)cc1 [Example 35, (S)-N-(2-(4-chlorophenyl)propan-2-yl)-2-(1-methylpyrrolidin-2-yl)acetamide] | 0.0631 µM | 0.316 µM | 12.6 µM
Cc1cccc2c(C(C)(C)NC(=O)C[C@@H]3CCCCN3C)noc12 (single isomer, unassigned) [Example 44] | 0.00631 µM | 0.0631 µM | 12.6 µM
Cc1cccnc1OCC(C)(C)NC(=O)C[C@@H]1CCCN1C [Example 47, (S)-N-(2-methyl-1-((3-methylpyridin-2-yl)oxy)propan-2-yl)-2-(1-methylpyrrolidin-2-yl)acetamide] | 0.0126 µM | 0.398 µM | 25.1 µM
C[C@H](NC(=O)CC1CCCCN1C)c1ccc(Cl)cc1 (stereo partly drawn) [Example 60, N-((S)-1-(4-chlorophenyl)ethyl)-2-(1-methylpiperidin-2-yl)acetamide] | 0.1 µM | 0.501 µM | 25.1 µM
CN1CCCCC1CC(=O)NC(C)(C)c1nccc2occc12 (centres unmarked) [Example 13, N-(2-(furo[3,2-c]pyridin-4-yl)propan-2-yl)-2-(1-methylpiperidin-2-yl)acetamide] | 0.02 µM | 0.126 µM | –
CCN1CCCC1CC(=O)NC1(COc2ncccc2C)CC1 (centres unmarked) [Example 63, 2-(1-ethylpyrrolidin-2-yl)-N-(1-(((3-methylpyridin-2-yl)oxy)methyl)cyclopropyl)acetamide] | 0.0631 µM | 1.58 µM | –
CN1CCCC[C@H]1CC(=O)NC(C)(C)c1nccc2occc12 (single isomer, unassigned) [Example 15] | 0.0251 µM | 0.316 µM | –
C[C@H](NC(=O)C[C@@H]1CCCN1C)c1ccc(Cl)cc1 [Example 31, N-((S)-1-(4-chlorophenyl)ethyl)-2-((S)-1-methylpyrrolidin-2-yl)acetamide] | 0.316 µM | – | –
CCN1CCCC1CC(=O)NC1(COc2ncccc2C)CCC1 (centres unmarked) [Example 64, 2-(1-ethylpyrrolidin-2-yl)-N-(1-(((3-methylpyridin-2-yl)oxy)methyl)cyclobutyl)acetamide] | 0.1 µM | – | –
Cc1cccnc1OCC1(NC(=O)C[C@@H]2CCCN2C)CCCC1 [Example 56, (S)-N-(1-(((3-methylpyridin-2-yl)oxy)methyl)cyclopentyl)-2-(1-methylpyrrolidin-2-yl)acetamide] | 0.2 µM | – | –

Further lines, results first:

EC50 [1] | IC50 [2] | IC50 [3] | SMILES
0.0398 µM | 0.0398 µM | 6.31 µM | CC(C)[C@@H](CN1CCC1)C(=O)N[C@@H](c1ccccc1)C(F)F [Example 178, (S)-2-(azetidin-1-ylmethyl)-N-((S)-2,2-difluoro-1-phenylethyl)-3-methylbutanamide]
0.0158 µM | 0.2 µM | 31.6 µM | O=C(CCN1CCC1)NC(c1cccc(F)c1)C(F)(F)F (single isomer, unassigned) [Example 193]
0.158 µM | 1 µM | > 50.1 µM | CN1CCC[C@H]1CC(=O)NC(C)(C)c1ccccc1F [Example 160, (S)-N-(2-(2-fluorophenyl)propan-2-yl)-2-(1-methylpyrrolidin-2-yl)acetamide]
0.00794 µM | 0.0794 µM | 25.1 µM | Cc1cccc(C(C)(C)NC(=O)CCN2CCC2)c1 [Example 162, 3-(azetidin-1-yl)-N-(2-(m-tolyl)propan-2-yl)propanamide]
0.0126 µM | 0.0501 µM | 39.8 µM | Cc1c(F)cccc1C(C)(C)NC(=O)CCN1CCC1 [Example 166, 3-(azetidin-1-yl)-N-(2-(3-fluoro-2-methylphenyl)propan-2-yl)propanamide]
0.2 µM | 1 µM | > 50.1 µM | CC(C)(NC(=O)CC1NCCC1(F)F)c1nccc2ccccc12 (centres unmarked) [Example 100, 2-(3,3-difluoropyrrolidin-2-yl)-N-(2-(isoquinolin-1-yl)propan-2-yl)acetamide]
0.0794 µM | 0.398 µM | 39.8 µM | Cc1c(Cl)cccc1C(C)(C)NC(=O)C[C@@H]1CCCN1C [Example 118, (S)-N-(2-(3-chloro-2-methylphenyl)propan-2-yl)-2-(1-methylpyrrolidin-2-yl)acetamide]
0.01 µM | 0.0316 µM | 3.98 µM | Cc1ccccc1C(NC(=O)CCN1CCC1)C(F)(F)F (single isomer, unassigned) [Example 210]
0.0251 µM | 0.251 µM | > 50.1 µM | O=C(CCN1CCC1)NC(c1cc(F)ccc1F)C(F)F (centres unmarked) [Example 167, 3-(azetidin-1-yl)-N-(1-(2,5-difluorophenyl)-2,2-difluoroethyl)propanamide]
0.000794 µM | 0.02 µM | 1.58 µM | CC[C@@H](CN1CCC1)C(=O)NC(C)(C)c1ccc(C)cc1 (single isomer, unassigned) [Example 187]
0.000794 µM | 0.00251 µM | 0.631 µM | CC(C)[C@@H](CN1CCC1)C(=O)N[C@H](c1cccc(F)c1)C(F)F [Example 194, (S)-2-(azetidin-1-ylmethyl)-N-((R)-2,2-difluoro-1-(3-fluorophenyl)ethyl)-3-methylbutanamide]
0.00398 µM | 0.158 µM | 3.98 µM | CN1CCCC1CC(=O)NC(C)(C)c1nccc2ccccc12 (centres unmarked) [Example 203, N-(2-(isoquinolin-1-yl)propan-2-yl)-2-(1-methylpyrrolidin-2-yl)acetamide]
0.0631 µM | 1.58 µM | – | COc1c(C)cccc1C(C)(C)NC(=O)[C@@H](C)CN1CCC1 (single isomer, unassigned) [Example 147]
0.398 µM | – | – | CN1CCC[C@@H]1CC(=O)NC(C)(C)c1ccccc1F [Example 159, (R)-N-(2-(2-fluorophenyl)propan-2-yl)-2-(1-methylpyrrolidin-2-yl)acetamide]
0.0631 µM | – | – | Cc1c(F)cccc1C(C)(C)NC(=O)C[C@H]1CCCN1C [Example 90, (R)-N-(2-(3-fluoro-2-methylphenyl)propan-2-yl)-2-(1-methylpyrrolidin-2-yl)acetamide]
0.316 µM | – | – | C[C@@H](CN1CCCC1)C(=O)NC(C)(C)c1ccccc1Cl (single isomer, unassigned) [Example 137]
